Measured values as given in PMC11876601 (Molecular Systems Biology, 2025).

Experiments:
[1] = test system: Suit2-07; test: cells; design: ATPlite luminescence viability of PDAC cell lines, 11-dose single-agent curves, 4-parameter fit; details: 72 h, read-out: EC50 [nM]
Summary of the method: (§1)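 cells (1000 to 5000 per well) seeded 24 h before drug addition in a combination screen at 0.2% final DMSO. Controls were drug-free wells (negative) and 5 µM staurosporine (positive).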

[2] = test system: Dan-G; test: cells; design: ATPlite luminescence viability of PDAC cell lines, 11-dose single-agent curves, 4-parameter fit; details: 72 h, read-out: EC50 [nM]
Summary of the method: as §1

[3] = test system: FAMPAC; test: cells; design: ATPlite luminescence viability of PDAC cell lines, 11-dose single-agent curves, 4-parameter fit; details: 72 h, read-out: EC50 [nM]
Summary of the method: as §1

[4] = molecular target: PDGFRB; design: method as in Reinecke et al. (2023); details: 5 cell line mix lysate, Kinobeads ε, ref Reinecke et al. (2023), cited from earlier work
[5] = molecular target: PTK2B; design: method as in Reinecke et al. (2023); details: 5 cell line mix lysate, Kinobeads ε, ref Reinecke et al. (2023), cited from earlier work
[6] = test system: PANC-1; test: cells; design: ATPlite luminescence viability of PDAC cell lines, 11-dose single-agent curves, 4-parameter fit; details: Homo sapiens, PANC-1, 72 h, read-out: EC50 [nM]
Summary of the method: as §1

[7] = test system: INCENP; design: method as in Klaeger et al. (2017); details: lysate 4 cell line mix (Colo205, K-562, MV-4-11, and SK-N-BE(2)), Kinobeads y, ref Klaeger et al. (2017); cited from earlier work
[8] = test system: CDK5; design: method as in Klaeger et al. (2017); details: lysate 4 cell line mix (Colo205, K-562, MV-4-11, and SK-N-BE(2)), Kinobeads y, ref Klaeger et al. (2017); cited from earlier work
[9] = test system: ERN2; design: method as in Klaeger et al. (2017); details: ERN2, 4 cell line mix lysate, Kinobeads y, ref Klaeger et al. (2017); cited from earlier work
[10] = test system: RASSF5; design: method as in Klaeger et al. (2017); details: RASSF5, 4 cell line mix lysate, Kinobeads y, ref Klaeger et al. (2017); cited from earlier work
[11] = test system: TBKBP1; design: method as in Klaeger et al. (2017); details: lysate 4 cell line mix (Colo205, K-562, MV-4-11, and SK-N-BE(2)), Kinobeads y, ref Klaeger et al. (2017); cited from earlier work
[12] = test system: HuP-T4; test: cells; design: ATPlite luminescence viability of PDAC cell lines, 11-dose single-agent curves, 4-parameter fit; details: Homo sapiens, HuP-T4, 72 h, read-out: EC50 [nM]
Summary of the method: as §1

Work on `CCN1CCN(Cc2ccc(Nc3ncc(F)c(-c4cc(F)c5nc(C)n(C(C)C)c5c4)n3)nc2)CC1` [Abemaciclib] yielded an EC50 [1] of 250 nM, an EC50 [2] of over 10000 nM and an EC50 [3] of over 10000 nM.

For `COc1cc(N2CCC(N3CCN(C)CC3)CC2)ccc1Nc1ncc(Cl)c(Nc2ccccc2P(C)(C)=O)n1` [Brigatinib], the Kd ([4]; read-out: KDapp) is listed as 737 nM, the EC50 [4] is listed as 843 nM and the pKDapp [4] is listed as 6.13. The Kd ([5]; read-out: KDapp) was 5.14 nM, the EC50 [5] was 12.4 nM and the pKDapp [5] was 8.29.

In the case of `C[C@]12O[C@H](C[C@]1(O)CO)n1c3ccccc3c3c4c(c5c6ccccc6n2c5c31)CNC4=O` [Lestaurtinib], the EC50 [6] is listed as over 10000 nM, the EC50 [7] is listed as 520 nM and the EC50 [8] is listed as […]. The EC50 [9] was 373 nM, the EC50 [10] was 73 nM and the EC50 [11] was 1010 nM.

`C[C@@H]1COCCN1c1cc(-c2ccnn2C)c2ccnc(-c3ccn[nH]3)c2n1` [Elimusertib] gave an EC50 [12] of 359 nM.
